This assay has as its system P388 leukemia ip, CD2F1 mice, survival T/C. Put plainly: NCI In Vivo Anticancer Drug Screen. Data for tumor model P388 Leukemia (intraperitoneal) in CD2F1 (CDF1) mice. The settings on record: endpoint: median survival time, higher = longer survival. Put shortly: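 Mice carrying the transplanted tumor received test compound or vehicle. Survival was recorded in each group, and the value is the treated-group measurement divided by that of the vehicle-treated control group.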

[1] abbreviates: dose: 12.5 mg/kg/injection, schedule: Q01DX009 (ip), vehicle: Klucel (hydroxypropylcellulose) (HPC).
The mark [2] stands for this setting: dose: 25.0 mg/kg/injection, schedule: Q01DX009 (ip), vehicle: Klucel (hydroxypropylcellulose) (HPC).
The mark [3] stands for this setting: dose: 50.0 mg/kg/injection, schedule: Q01DX009 (ip), vehicle: Klucel (hydroxypropylcellulose) (HPC).
Where [4] appears, read: dose: 100.0 mg/kg/injection, schedule: Q01DX009 (ip), vehicle: Klucel (hydroxypropylcellulose) (HPC).
[5] abbreviates: dose: 50.0 mg/kg/injection, schedule: Q01DX009 (ip), vehicle: saline with Tween-80.
Where [6] appears, read: dose: 50.0 mg/kg/injection, schedule: Q01DX005 (ip), vehicle: saline with Tween-80.
[7] abbreviates: dose: 50.0 mg/kg/injection, schedule: Q01DX005 (ip), vehicle: Klucel (hydroxypropylcellulose) (HPC).
[8] abbreviates: dose: 100.0 mg/kg/injection, schedule: Q01DX005 (ip), vehicle: Klucel (hydroxypropylcellulose) (HPC).

Values joined by “and” are separate entries in the source; they are usually repeats but may differ in a detail not shown here. Equal entries are not always repeated. Toxic doses and inconclusive results are not listed.

For `COC1/C=C\OC2(C)Oc3c(C)c(O)c4c(O)c(c(CN(C)CCO)c(O)c4c3C2=O)NC(=O)/C(C)=C\C=C/C(C)C(O)C(C)C(O)C(C)C(OC(C)=O)C1C` (stereo not drawn), the T/C under setting [1] is 86 % of control; the T/C under setting [2] is 117 % of control; the T/C under setting [3] was 118 % of control; the T/C under setting [4] was 111 % of control; the T/C (dose: 200.0 mg/kg/injection, schedule: Q01DX009 (ip), vehicle: Klucel (hydroxypropylcellulose) (HPC)) is 104 % of control; the T/C (dose: 400.0 mg/kg/injection, schedule: Q01DX009 (ip), vehicle: Klucel (hydroxypropylcellulose) (HPC)) is 96 % of control.

`CCCCCOC(=O)c1ccccc1N`: the T/C under setting [1] is 105 % of control; the T/C under setting [2] was 104 % of control; the T/C under setting [3] was 102 % of control and 103 % of control; the T/C under setting [4] is 91 % of control.

Consider `CCOC(=O)C(CC)C1=CCCCC1` (stereo not drawn), for which the T/C is 109 % of control under setting [5]; 118 % of control (dose: 100.0 mg/kg/injection, schedule: Q01DX009 (ip), vehicle: saline with Tween-80); 109 % of control (dose: 100.0 mg/kg/injection, schedule: Q04DX003 (ip), vehicle: saline with Tween-80); 118 % of control (dose: 200.0 mg/kg/injection, schedule: Q01DX009 (ip), vehicle: saline with Tween-80); 100 % of control (dose: 200.0 mg/kg/injection, schedule: Q04DX003 (ip), vehicle: saline with Tween-80); 113 % of control (dose: 400.0 mg/kg/injection, schedule: Q04DX003 (ip), vehicle: saline with Tween-80).

Consider `COc1cc2c(cc1OC)-c1ccc(OC)c(=O)cc1CC(NC(=O)C(C)=O)C2` (stereo not drawn), for which the T/C (dose: 0.63 mg/kg/injection, schedule: Q01DX009 (ip), vehicle: Klucel (hydroxypropylcellulose) (HPC)) is 153 % of control; the T/C (dose: 1.25 mg/kg/injection, schedule: Q01DX009 (ip), vehicle: Klucel (hydroxypropylcellulose) (HPC)) was 105 % of control; the T/C (dose: 78.0 micrograms/kg/injection, schedule: Q01DX009 (ip), vehicle: Klucel (hydroxypropylcellulose) (HPC)) was 120 % of control; the T/C (dose: 625.0 micrograms/kg/injection, schedule: Q01DX009 (ip), vehicle: Klucel (hydroxypropylcellulose) (HPC)) is 151 % of control.

Take `O=[N+]([O-])c1cccc2c[n+](Cc3ccccc3)ccc12`: the T/C is 113 % of control (dose: 12.5 mg/kg/injection, schedule: Q01DX009 (ip), vehicle: saline with Tween-80); 118 % of control (dose: 25.0 mg/kg/injection, schedule: Q01DX009 (ip), vehicle: saline with Tween-80); 107 % of control under setting [5].

In the case of `COc1ccc2c(c1OC)[C@]13CCCC[C@@H]1[C@H](C2)N(C)CC3`, the T/C is 101 % of control (dose: 12.5 mg/kg/injection, schedule: Q04DX003 (ip), vehicle: saline); 100 % of control (dose: 25.0 mg/kg/injection, schedule: Q04DX003 (ip), vehicle: saline); 100 % of control (dose: 50.0 mg/kg/injection, schedule: Q04DX003 (ip), vehicle: saline).

As for `COc1ccc(/C(C#N)=C\c2ccc(N(C)C)cc2)cc1`, the T/C by setting is: (dose: 50.0 mg/kg/injection, schedule: Q04DX003 (ip), vehicle: Klucel (hydroxypropylcellulose) (HPC)) 108 % of control; (dose: 100.0 mg/kg/injection, schedule: Q04DX003 (ip), vehicle: Klucel (hydroxypropylcellulose) (HPC)) 105 % of control; (dose: 200.0 mg/kg/injection, schedule: Q04DX003 (ip), vehicle: Klucel (hydroxypropylcellulose) (HPC)) 106 % of control; (dose: 400.0 mg/kg/injection, schedule: Q04DX003 (ip), vehicle: Klucel (hydroxypropylcellulose) (HPC)) 105 % of control.

On to `CCCCCCCCCCCC1N=C(N)N=C(N)N1c1cccc(Br)c1` (stereo not drawn), for which the T/C (dose: 12.5 mg/kg/injection, schedule: Q01DX005 (ip), vehicle: saline with Tween-80) is 100 % of control; the T/C (dose: 25.0 mg/kg/injection, schedule: Q01DX005 (ip), vehicle: saline with Tween-80) is 112 % of control; the T/C under setting [6] is 97 % of control.

In the case of `Cc1onc(-c2ccccc2)c1C`, the T/C was 99 % of control (dose: 100.0 mg/kg/injection, schedule: Q01DX001 (ip), vehicle: saline); 102 % of control (dose: 200.0 mg/kg/injection, schedule: Q01DX001 (ip), vehicle: saline); 105 % of control (dose: 400.0 mg/kg/injection, schedule: Q01DX001 (ip), vehicle: saline).

On to `C=CC1OCCCO1`, for which the T/C runs as follows: (dose: 60.0 mg/kg/injection, schedule: Q01DX005 (ip), vehicle: saline) 100 % of control; (dose: 120.0 mg/kg/injection, schedule: Q01DX005 (ip), vehicle: saline) 100 % of control.

Consider `C=C1C[C@@]23CC[C@@H]4[C@](C)(CC[C@H](O)[C@]4(C)COC(=O)CCC(=O)O)[C@H]2CC[C@@H]1C3`, for which the T/C is, setting by setting: under setting [7], 101 % of control; under setting [8], 100 % of control; (dose: 200.0 mg/kg/injection, schedule: Q01DX005 (ip), vehicle: Klucel (hydroxypropylcellulose) (HPC)) 99 % of control.

Regarding `O=S1(=O)CCC2C1C1(Cl)C(Cl)=C(Cl)C2(Cl)C1(Cl)Cl` (stereo not drawn), the T/C (dose: 6.25 mg/kg/injection, schedule: Q01DX009 (ip), vehicle: saline) is 100 % of control; the T/C (dose: 12.5 mg/kg/injection, schedule: Q01DX009 (ip), vehicle: saline) is 100 % of control; the T/C (dose: 25.0 mg/kg/injection, schedule: Q01DX009 (ip), vehicle: saline) is 100 % of control.

For `Cc1cc(NCCCCCCNc2cc(C)nc3cc(N)ccc23)c2ccc(N)cc2n1`, the T/C (dose: 25.0 mg/kg/injection, schedule: Q01DX009 (ip), vehicle: other) is 150 % of control and 158 % of control.

Turning to `COc1ccccc1N=Nc1c(-c2cccs2)nn(C(=S)SC)c1C(F)(F)F`, the T/C is 92 % of control (dose: 60.0 mg/kg/injection, schedule: Q01DX005 (ip), vehicle: saline with Tween-80); 97 % of control (dose: 120.0 mg/kg/injection, schedule: Q01DX005 (ip), vehicle: saline with Tween-80); 97 % of control (dose: 240.0 mg/kg/injection, schedule: Q01DX005 (ip), vehicle: saline with Tween-80).

On to `S=c1[nH]c(=S)c2[nH]cnc2[nH]1`, for which the T/C is 102 % of control under setting [6]; 100 % of control (dose: 100.0 mg/kg/injection, schedule: Q01DX005 (ip), vehicle: saline with Tween-80); 100 % of control (dose: 200.0 mg/kg/injection, schedule: Q01DX005 (ip), vehicle: saline with Tween-80).

For `O=S1(=O)C(c2cccc(C(F)(F)F)c2)=C(O)c2cc3ccccc3nc21`, the T/C was 105 % of control (dose: 6.25 mg/kg/injection, schedule: Q01DX009 (ip), vehicle: saline + Tween-80 + alcohol); 105 % of control (dose: 12.5 mg/kg/injection, schedule: Q01DX009 (ip), vehicle: saline + Tween-80 + alcohol); 100 % of control and 87 % of control (dose: 25.0 mg/kg/injection, schedule: Q01DX009 (ip), vehicle: saline + Tween-80 + alcohol); 99 % of control (dose: 50.0 mg/kg/injection, schedule: Q01DX009 (ip), vehicle: saline + Tween-80 + alcohol); 99 % of control (dose: 100.0 mg/kg/injection, schedule: Q01DX009 (ip), vehicle: saline + Tween-80 + alcohol).

Regarding `CCCC(N(C)C)P(=O)(O)O` (stereo not drawn), the T/C is 105 % of control (dose: 100.0 mg/kg/injection, schedule: Q04DX003 (ip), vehicle: saline); 105 % of control (dose: 200.0 mg/kg/injection, schedule: Q04DX003 (ip), vehicle: saline); 100 % of control (dose: 400.0 mg/kg/injection, schedule: Q04DX003 (ip), vehicle: saline).

As to `COc1c2occc2c(NC(=O)CI)c2ccc(=O)oc12`, the T/C is 102 % of control (dose: 25.0 mg/kg/injection, schedule: Q04DX002 (ip), vehicle: saline with Tween-80); 101 % of control (dose: 50.0 mg/kg/injection, schedule: Q04DX002 (ip), vehicle: saline with Tween-80); 101 % of control (dose: 100.0 mg/kg/injection, schedule: Q04DX002 (ip), vehicle: saline with Tween-80).

Take `c1ccc2c(SCCCCCCCCSc3c4ccccc4nc4ccccc34)c3ccccc3nc2c1`: the T/C was 101 % of control (dose: 60.0 mg/kg/injection, schedule: Q01DX005 (ip), vehicle: Klucel (hydroxypropylcellulose) (HPC)); 86 % of control (dose: 120.0 mg/kg/injection, schedule: Q01DX005 (ip), vehicle: Klucel (hydroxypropylcellulose) (HPC)); 86 % of control (dose: 240.0 mg/kg/injection, schedule: Q01DX005 (ip), vehicle: Klucel (hydroxypropylcellulose) (HPC)).

In the case of `Cc1cccc(N=Nc2c(C)nn(C(N)=S)c2C)c1C`, the T/C was 90 % of control (dose: 25.0 mg/kg/injection, schedule: Q01DX005 (ip), vehicle: Klucel (hydroxypropylcellulose) (HPC)); 94 % of control under setting [7]; 106 % of control under setting [8].

Values taken from PubChem BioAssay AID330 (DTP/NCI, 2004).
